Results on one molecule are retold here after publication PMC10938439, “C-3 Steroidal Hemiesters as Inhibitors of 17β-Hydroxysteroid Dehydrogenase Type 10” (ACS Omega, 2024).

The subject of data set [1] is HEK-293 cells. Nature of the data set: CellTiter-Glo luminescent cell viability assay. Format: cell-based. The following applies: HEK-293, 1, 10 and 20 μM. The protocol: (§1) Finally, because the strongest inhibitor identified in vitro compound 23 has a favorable permeability coefficient, its potency to inhibit 17β-HSD10 also at the cellular level was determined. First, it was necessary to exclude the possibility that higher concentrations of compound 23 could be unfavorable to cells. The effects of compound 23 on the cellular viability and cytotoxicity of this compound (1, 10, and 20 μM) were determined using CellTiter-Glo Viability Assay and CellTox Green Assay, respectively, on HEK-293 cell line.
(§2) HEK-293 cells in DMEM (Capricorn) were supplemented with fetal bovine serum (10%, Gibco), L-glutamine (2 mM, Lonza), and nonessential amino acid additives (Gibco). Cells were maintained at 37 °C under a humidified atmosphere of 5% CO2. Compound 23 was tested on the HEK-293 cell line on cell viability using CellTox Green (G8741, Promega) and the CellTiter-Glo 2.0 kit (G9241, Promega), respectively, to establish their cytotoxic effect. Using a Tecan Spark 10 M instrument, the measurements were performed as end point methods in the multiplex. For multiplex measurement, 7500 cells were seeded per well in 50 μL of culture media and cultured for 24 h before the addition of selected compounds. […] Next, the CellTiter-Glo Luminescent Cell Viability Assay with an integration time of 500 ms was determined.
(In ATP-based viability assays light output follows the ATP content of the culture.)

For data set [2], the target named is T1, 17β-HSD10 overexpressed in HEK-293 (HEK-293-HSD10 cell line) (Homo sapiens, UniProt Q99714).
T1 construct: expressed in transfected cells; host or cells: HEK-293 (HEK-293-HSD10)
T1 sequence (Q99714 1-261): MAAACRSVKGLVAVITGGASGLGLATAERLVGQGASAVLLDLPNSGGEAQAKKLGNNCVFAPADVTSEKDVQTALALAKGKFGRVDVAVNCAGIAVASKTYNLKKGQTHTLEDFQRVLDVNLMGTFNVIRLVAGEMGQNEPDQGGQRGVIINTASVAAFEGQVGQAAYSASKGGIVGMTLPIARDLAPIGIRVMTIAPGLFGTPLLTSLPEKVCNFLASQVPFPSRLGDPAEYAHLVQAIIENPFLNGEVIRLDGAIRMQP
Nature of the data set: Fluorogenic (−)–CHANA assay for cellular inhibition of 17β-HSD10. Format: cell-based. Conditions: HEK-293-HSD10, (−)–CHANA probe. The procedure: Identical concentrations of compound 23 were used for fluorogenic cellular assay using a special probe (−)–CHANA as a substrate for 17β-HSD10 overexpressed in HEK-293 (HEK-293-HSD10 cell line).[15] […] The exact IC50 value at the cellular level was not possible to determine because of some method interferences, as well as its unknown cytotoxic characteristics. Higher IC50 (>20 μM) is in agreement with the high concentration of 17β-HSD10 in the model cell line.[15]
A previously published cell line with overexpressed 17β-HSD10 (HEK-293-HSD10)[15] was used to measure 17β-HSD10 inhibition in the cellular environment. For this purpose, the (−)–CHANA fluorogenic probe was used. The cells (density 1 × 10^4 cells per well) were seeded in DMEM (200 μL) without phenol red (Gibco). […] The changes in fluorescent intensities were measured immediately after (-)-CHANA addition and 2 h later. The fluorescence intensities of the CHANK product were taken by using the TECAN SPARK 10 M instrument (Ex/Em = 380/525 nm). The residual 17β-HSD10 activity was calculated as ΔF between 2 and 0 h after (-)-CHANA treatment, and the data were normalized between nontreated HEK-293-HSD10 and native, nontransfected HEK-293 controls (using relative response ratio). […]

On the set-up of data set [3]: method as in PMID 30296546. The following applies: cited from earlier work.
The test system of data set [4] is HEK-293 cells. Description: CellTox Green cytotoxicity assay. Format: cell-based. Conditions: HEK-293, up to 20 μM. The protocol:
as §1, §2

Data set [5] deals with Caco-2 cells. Details: method as in PMID 30296546. The following applies: cited from earlier work.

Molecules are shown by their SMILES. “Also recorded” adds a separate entry of the source. Bounds are passed on as bounds.

For orientation: inhibition means the percentage by which the read-out fell short of the control. In general, IC50 refers to the concentration needed to halve the response being measured. Turning to `C[C@@]12CCC[C@H]1[C@@H]1CC=C3C[C@@H](OC(=O)CCCCC(=O)O)CC[C@]3(C)[C@H]1CC2` [Compound 23, Androst-5-en-3β-yl Hemiadipate], in data set [1], the “cellular viability (CellTiter-Glo)” value is “does not influence HEK-293 viability”. In data set [2] (HEK293, highest concentration 25 μM, read-out: inhibition of 17β-HSD10 activity in cells), the inhibition at 25 µM was around 50%. Besides, the IC50 in data set [2] (exact value not determinable, read-out: IC50 at the cellular level) was above 20 µM. Besides, the “human plasma stability, % remaining after 8 h” value in data set [3] is recorded as 100%. For the same molecule, the “cytotoxicity (CellTox Green)” value in data set [4] was “not cytotoxic; also recorded: not toxic”. The “Caco-2 cell permeability (50 μM) Papp” value in data set [5] is reported as 3.1 × 10^–6 cm/s.
